# Results: patent US6432880B1, “Substituted 2-phenylpyridines as herbicides” (BASF Aktiengesellschaft, priority 1999, dated 2002)
row,melting point,Structure (SMILES)
1,132 to 133 °C,"CS(=O)(=O)Oc1cnc(-c2cc(O)c(Cl)cc2F)c(Cl)c1 [Ia.362, 2-(4-chloro-2-fluoro-5-hydroxyphenyl)-3-chloro-5-(methylsulfonyl-oxy) pyridine]"
2,118 to 120 °C,"COc1cc(-c2ncc(OS(C)(=O)=O)cc2Cl)c(F)cc1Cl [Ia.363, 2-(4-chloro-2-fluoro-5-methoxyphenyl)-3-chloro-5-(methylsulfonyl-oxy)pyridine]"
